Results as given in patent US10213407B2, “Compounds and methods for inhibiting production of trimethylamine” (The Procter & Gamble Company, priority 2015, dated 2019).

Each compound was assayed on Proteus mirabilis 29906 (Pm) lysate (assay: Inhibition of formation of TMA from choline in Proteus mirabilis lysate (d9-choline to d9-TMA, LC-MS/MS)). Conditions: conversion of choline to TMA; Pm lysate 1.5 mg/mL protein, 50 μM d9-choline chloride, 37° C., two hours; read-out: TMA Inhibition (IC50, mol/L).
Assay type: biochemical
Protocol: EXAMPLE 2 Assay for identifying and characterizing compounds that inhibit the formation of TMA from choline.
This example provides an exemplary assay for identifying and characterizing compounds that inhibit the formation of TMA from choline.
Proteus mirabilis 29906 (Pm) strain was grown aerobically overnight in 500 ml of Nutrient Broth media (3 g/L beef extract, 5 g/L Peptone; Difco #234000) at 37° C. with 250 rpm shaking. The biomass was pelleted by centrifugation at 6000×g for 12 minutes at 4° C. The cell pellet was suspended in 240 mL of ice-cold 1× Phosphate Buffered Saline (Ca^2+ and Mg^2+ free). Ninety micrograms of Lysozyme (Sigma #L6876 Lot #SLBG8654V; Sigma-Aldrich Corp., St. Louis, Mo.) was added and incubated with 320 rpm shaking for 30 minutes at 4° C. Lysis was achieved via French press with a 4° C. prechilled 1″ diameter chamber at 1000 psi (high ratio; internal PSI equivalent ˜16000). The lysate was centrifuged at 6,000×g for 12 minutes at 4° C. to pellet extra debris. A protein concentration of the centrifuged lysate supernatant was determined by a BCA Protein Assay Kit (Pierce #23225; Thermo Fisher Scientific Co., Waltham, Mass.) and protein concentration adjusted to 3 mg/ml with 1× Dulbecco's phosphate buffered saline (DPBS). The centrifuged supernatant lysate was aliquoted into 20 mL volumes and stored frozen at −80° C.
Proteus mirabilis 29906 (Pm) lysate was diluted to 1.5 mg/mL protein with 1×DPBS. Choline chloride (CC) (1M stock) was added to reach a final concentration of 2.5 mM choline chloride. The mixture was mixed using a vortex mixer for approximately 15 seconds and incubated at 37° C. for 22 hours. After incubation, 150 μL of CC-treated Pm lysate was dispensed into a deep-well plate (polypropylene, 2 mL volume, Corning Axygen catalogue #P-DW-20-C). Candidate IC50 compounds from TABLE 1 and vehicle control (respective vehicle control of DMSO or water), or control compounds (IC50 control, 8-Quinolinol hemisulfate salt (Sigma Catalog #55100)) were added at a 1:100 dilution (e.g., 1.5 μL per well). The plates were agitated on a plate shaker for 1 minute. d9-choline chloride (1.5 μL of 5 mM) was added to all wells to reach a final d9-choline chloride concentration of 50 μM.
The plates were again agitated on a plate shaker for 1 minute and incubated at 37° C. for two hours. After incubation, 1.5 μL of formic acid was added to each well (final concentration=1% formic acid). The plates were agitated on a plate shaker for 1 minute and placed on ice. Cell lysate samples were spiked with stable isotope labeled internal standard (22.5 μL of 6 μg/mL of 13C3-trimethylamine (13C3-TMA) was added to each sample), then d9-trimethylamine (d9-TMA), trimethylamine (TMA) and 13C3-TMA were isolated from the lysate after protein precipitation as described below. Acetonitrile acidified with 0.1% formic acid, 600 μL, was added to each sample which was then centrifuged (2,100 g for 20 minutes) to pellet the protein and other precipitates. The supernatant was removed and analyzed as described below. The TMA, d9-TMA and 13C3-TMA in the isolated supernatant samples were subjected to gradient High Performance Liquid Chromatography (HPLC) analysis on a Waters Atlantis HILIC Silica column, from Waters Corp., Milford, Mass., (2.1×50 mm, 3 μm particles) with an Atlantis Silica HILIC Sentry guard column, from Waters Corp., Milford, Mass., (100 Å, 3 μm, 2.1 mm×10 mm), 10 mM ammonium formate in water with 0.1% formic acid as mobile phase A and 0.1% formic acid in acetonitrile as mobile phase B. Detection and quantitation was achieved by tandem mass spectrometry operating under multiple reaction monitoring (MRM) MS/MS conditions (m/z 60.1→44.1 for TMA, m/z 69.1→49.1 for d9-TMA, m/z 63.0→46.1 for 13C3-TMA). TMA and d9-TMA calibration standards (STD), prepared in 80/20/0.1% acetonitrile/Water/Formic Acid, were used to construct a regression curve by plotting the response (peak area TMA/peak area 13C3-TMA) versus concentration for each standard. […]

Structure (SMILES) | IC50
CCOC(=O)C(=O)C[N+](C)(C)CCCN=C=S [Compound 6] | 14.4 µM
CC[N+](CC)(CCBr)CCCN=C=S [Compound 7, N-(2-Bromoethyl)-3-isothiocyanato-N,N-diethylpropan-1-aminium triflate] | 18.2 µM
CC[N+](CC)(CC#N)CCCN=C=S [Compound 9, N-Cyanomethyl-3-isothiocyanato-N,N-diethylpropan-1-aminium bromide] | 60.5 µM
CCOC(=O)C(=O)C[N+](C)(C)CCN=C=S [Compound 5, N-(Ethoxypropyl-2,3-dione)-2-isothiocyanato-N,N-dimethylethan-1-aminium bromide] | 769 µM
CC[N+](C)(CC)CCCN=C=S [Compound 2, 3-Isothiocyanato-N,N-diethyl-N-methylpropanaminium iodide] | 10.6 µM
